Experimental data reported in US9255072B2, “Pyrazole compounds and thiazole compounds as protein kinases inhibitors” (National Health Rsearch Institutes, priority 2011, dated 2016).

Tested on: MOLM-13 cell
Test: MTS cell viability assay
Assay type: cell-based
Details: Homo sapiens, MOLM-13, 72 h, table of representative values
Excerpt: The leukemias cell lines MOLM-13, MV4:11, RSV4:11, MOLT-4, U937, and K562 were purchased from American Type Culture Collection (ATCC, Manassas, Va., USA). The non-leukemias cell lines HCC827, H1975, NCIH460, A431, Huh7, SF268, MCF-7, HCT-116, and normal human fetal fibroblast cell line Detriot 551 were purchased from American Type Culture Collection (ATCC, Manassas, Va., USA). All leukemias cell lines and HCC827, H1975, NCIH460, A431 were maintained in RPMI 1640 medium supplemented with 10% fetal bovine serum (FBS), 10 U/ml penicillin, and 10 µg/ml streptomycin at 37° C. and 5% CO2. The cell lines Huh7, SF268, MCF-7, and Detroit 551 were cultured in DMEM medium supplemented with 10% FBS, 0.01% nonessential amino acids, 10 U/ml penicillin, and 10 µg/ml streptomycin. HCT-116 were cultured in McCoy's 5A medium supplemented with 10% FBS, 0.01% nonessential amino acids, 10 U/ml penicillin, and 10 µg/ml streptomycin. To determine cell viability after drug treatment, assays were performed by seeding 10,000 cells (leukemias cell lines) or 2,500 cells (non-leukemias cell lines) per well in a 96-well culture plate. After 16 h, cells were then treated with vehicle or various concentrations of compound in medium for 72 h. Viable cells were quantitated using the MTS method (Promega, Madison, Wis., USA) according to the manufacturer's recommended protocol. The results were determined by measuring the absorbance at 490 nm using a plate reader (Victor2; PerkinElmer, Shelton, Conn., USA).

GI50 [nM] | SMILES
2 | CCc1cc(NC(=O)Nc2ccc(-c3cnc(Nc4cc(N5CCN(CC)CC5)nc(C)n4)s3)cc2)no1 [Compound 112, N-(5-ethyl-3-isoxazolyl)-N′-[4-(2-[6-(4-ethylpiperazino)-2-methyl-4-pyrimidinyl]amino-1,3-thiazol-5-yl)phenyl]urea]
3 | CCc1cc(NC(=O)Nc2ccc(-c3cnc(Nc4cc(N5CCC(N)C5)nc(C)n4)s3)cc2)no1 (centres unmarked) [Compound 119, N-[4-(2-[6-(3-aminotetrahydro-1H-1-pyrrolyl)-2-methyl-4-pyrimidinyl]amino-1,3-thiazol-5-yl)phenyl]N′-(5-ethyl-3-isoxazolyl)urea]
